Experimental data published in US12507703B2, “Methods, devices and compositions for preserving human milk” (The Trustees of Princeton University, priority 2023, dated 2025).
Values joined by “and” are separate entries in the source; they are usually repeats but may differ in a detail not shown here. Equal entries are not always repeated. Where a SMILES comes first, the peptide text is derived from it.

System: lipase
Experiment: Lipase/lipolysis assay (EnzChek Lipase Substrate, quenched BODIPY-fatty acid conjugate) on stored human milk; on Lipase (RFU): test concentration or dose not given here

Compound	Lipase (RFU)	Hit in lipase inhibition screen (in words)
C/C(C=O)=C\CC[C@@H](C)[C@H]1CC[C@@]2(C)C3=CC[C@H]4C(C)(C)C(=O)CC[C@]4(C)C3=CC[C@]12C [Ganoderal A]	1025.687 RFU	
C[C@H](CC(=O)C[C@@H](C)[C@H]1C[C@H](O)[C@@]2(C)C3=C(C(=O)C[C@]12C)[C@@]1(C)CCC(=O)C(C)(C)[C@@H]1C[C@@H]3O)C(=O)O [Ganoderic acid A]	685.8921 RFU	
CC(CC(=O)C[C@@H](C)[C@H]1CC(=O)[C@@]2(C)C3=C(C(=O)C[C@]12C)[C@@]1(C)CC[C@H](O)C(C)(C)[C@@H]1C[C@@H]3O)C(=O)O (stereo partly drawn) [Ganoderic acid B]	879.1619 RFU	
C/C(=C\CC[C@@H](C)[C@H]1CC[C@@]2(C)C3=C(CC[C@]12C)[C@@]1(C)CCC(=O)C(C)(C)[C@@H]1CC3=O)C(=O)O [Ganoderic acid DM]	1077.482 RFU	
CC(=O)O[C@@H]1C(=O)C2=C(C(=O)C[C@H]3C(C)(C)C(=O)CC[C@]23C)[C@]2(C)C(=O)C[C@H]([C@H](C)CC(=O)CC(C)C(=O)O)[C@@]12C (stereo partly drawn) [Ganoderic acid F]	791.7198 RFU	
C[C@H](CC(=O)C[C@](C)(O)[C@@H]1CC(=O)[C@@]2(C)C3=C(C(=O)C[C@]12C)[C@@]1(C)CC[C@H](O)C(C)(C)[C@@H]1C[C@@H]3O)C(=O)O [Ganoderic acid I]	969.9191 RFU	
CC(CC(=O)CC(C)(O)C1CC(=O)C2(C)C3=C(C(=O)CC12C)C1(C)CCC(=O)C(C)(C)C1CC3O)C(=O)O (stereo not drawn) [Ganoderic acid N]	866.924 RFU	
C/C(=C\CC[C@@H](C)[C@H]1CC[C@@]2(C)C3=CC[C@H]4C(C)(C)[C@@H](O)CC[C@]4(C)C3=CC[C@]12C)CO [Ganoderol B]	970.7443 RFU	
CC(C)=CCc1c(O)cc2oc3cc(O)c(O)c(CCC(C)(C)O)c3c(=O)c2c1O [Garcinone C]	921.9256 RFU	
OC[C@H]1O[C@@](CO)(O[C@H]2O[C@H](CO[C@@H]3O[C@H](CO)[C@@H](O)[C@H](O)[C@H]3O)[C@@H](O)[C@H](O)[C@H]2O)[C@@H](O)[C@@H]1O [Gentianose]	1100.387 RFU	
CC(C)=C1C/C=C(\C)CC/C=C(\C)CC1=O [Germacrone]	974.0245 RFU	
C[C@@H]1C(=O)O[C@H]2C[C@@]34[C@H]5C[C@@H](C(C)(C)C)[C@]36[C@@H](OC(=O)[C@@H]6O)O[C@@]4(C(=O)O5)[C@]21O [Ginkgolide A]	772.6433 RFU	
CC1C(=O)OC2C(O)C34C5CC(C(C)(C)C)C36C(OC(=O)C6O)OC4(C(=O)O5)C12O (stereo not drawn) [Ginkgolide B]	1094.796 RFU	
CC(C)=CCC[C@](C)(O[C@@H]1O[C@H](CO)[C@@H](O)[C@H](O)[C@H]1O)[C@H]1CC[C@]2(C)[C@@H]1[C@H](O)C[C@@H]1[C@@]3(C)CC[C@H](O)C(C)(C)[C@@H]3[C@@H](O)C[C@]12C [Ginsenoside F1]	975.1974 RFU	
CC(C)=CCC[C@](C)(O[C@@H]1O[C@H](CO)[C@@H](O)[C@H](O)[C@H]1O)[C@H]1CC[C@]2(C)[C@@H]1[C@H](O)C[C@@H]1[C@@]3(C)CC[C@H](O[C@@H]4O[C@H](CO)[C@@H](O)[C@H](O)[C@H]4O)C(C)(C)[C@@H]3CC[C@]12C [Ginsenoside F2]	926.1742 RFU	
CC(C)=CCC[C@](C)(O[C@@H]1O[C@H](CO[C@@H]2OC[C@H](O)[C@H](O)[C@H]2O)[C@@H](O)[C@H](O)[C@H]1O)[C@H]1CC[C@]2(C)[C@@H]1[C@H](O)C[C@@H]1[C@@]3(C)CC[C@H](O)C(C)(C)[C@@H]3[C@@H](O)C[C@]12C [Ginsenoside F3]	878.0505 RFU	
CC(C)=CCC[C@](C)(O[C@@H]1O[C@H](CO[C@@H]2O[C@H](CO)[C@@H](O)[C@H](O)[C@H]2O)[C@@H](O)[C@H](O)[C@H]1O)[C@H]1CC[C@]2(C)[C@@H]1[C@H](O)C[C@@H]1[C@@]3(C)CC[C@H](O[C@@H]4O[C@H](CO)[C@@H](O)[C@H](O)[C@H]4O[C@@H]4O[C@H](CO)[C@@H](O)[C@H](O)[C@H]4O)C(C)(C)[C@@H]3CC[C@]12C [Ginsenoside Rb1]	830.8489 RFU	
CC(C)=CCC[C@](C)(O[C@@H]1O[C@H](CO[C@@H]2OC[C@H](O)[C@H](O)[C@H]2O)[C@@H](O)[C@H](O)[C@H]1O)[C@H]1CC[C@]2(C)[C@@H]1[C@H](O)C[C@@H]1[C@@]3(C)CC[C@H](O[C@@H]4O[C@H](CO)[C@@H](O)[C@H](O)[C@H]4O[C@@H]4O[C@H](CO)[C@@H](O)[C@H](O)[C@H]4O)C(C)(C)[C@@H]3CC[C@]12C [Ginsenoside Rb2]	872.7793 RFU	
CC(C)=CCC[C@](C)(O[C@@H]1O[C@H](CO)[C@@H](O)[C@H](O)[C@H]1O)[C@H]1CC[C@]2(C)[C@@H]1[C@H](O)C[C@@H]1[C@@]3(C)CC[C@H](O)C(C)(C)[C@@H]3[C@@H](O[C@@H]3O[C@H](CO)[C@@H](O)[C@H](O)[C@H]3O)C[C@]12C [Ginsenoside Rg1]	1026.433 RFU	
CC(C)=CCC[C@](C)(O)[C@H]1CC[C@]2(C)[C@@H]1[C@H](O)C[C@@H]1[C@@]3(C)CC[C@H](O)C(C)(C)[C@@H]3[C@@H](O[C@@H]3O[C@H](CO)[C@@H](O)[C@H](O)[C@H]3O[C@@H]3O[C@@H](C)[C@H](O)[C@@H](O)[C@H]3O)C[C@]12C [Ginsenoside Rg2]	1144.609 RFU	
C=C(CCC=C(C)C)[C@H]1CC[C@]2(C)[C@@H]1[C@H](O)C[C@@H]1[C@@]3(C)CC[C@H](O)C(C)(C)[C@@H]3[C@@H](O[C@@H]3O[C@H](CO)[C@@H](O)[C@H](O)[C@H]3O[C@@H]3O[C@@H](C)[C@H](O)[C@@H](O)[C@H]3O)C[C@]12C [Ginsenoside Rg6]	737.5989 RFU	
CC(C)=CCC[C@](C)(O)[C@H]1CC[C@]2(C)[C@@H]1[C@H](O)C[C@@H]1[C@@]3(C)CC[C@H](O)C(C)(C)[C@@H]3[C@@H](O[C@@H]3O[C@H](CO)[C@@H](O)[C@H](O)[C@H]3O)C[C@]12C [Ginsenoside Rh1]	665.2277 RFU	
CC1(C)CC[C@]2(C(=O)O[C@@H]3O[C@H](CO)[C@@H](O)[C@H](O)[C@H]3O)CC[C@]3(C)C(=CC[C@@H]4[C@@]5(C)CC[C@H](O[C@@H]6O[C@H](C(=O)O)[C@@H](O)[C@H](O)[C@H]6O[C@@H]6O[C@H](CO)[C@@H](O)[C@H](O)[C@H]6O)C(C)(C)[C@@H]5CC[C@]43C)[C@@H]2C1 [Ginsenoside Ro]	1082.912 RFU	
COc1cc2c(cc1OC)-c1c(OC)c(OC)cc3c1[C@H](C2)N(C)CC3 [Glaucine]	922.5844 RFU	
O=C([O-])[C@H](O)[C@@H](O)[C@H](O)[C@H](O)CO.[Na+] [Gluconate (sodium)]	1019.914 RFU	

Compound	Lipase (RFU)	Hit in lipase inhibition screen (in words)
C[S+]([O-])CCCC/C(=N\OS(=O)(=O)O)S[C@@H]1O[C@H](CO)[C@@H](O)[C@H](O)[C@H]1O (stereo partly drawn) [Glucoraphanin]	983.9092 RFU	
CCCCCCCCCCCCC/C=C/[C@@H](O)[C@@H](N)CO[C@@H]1O[C@H](CO)[C@@H](O)[C@H](O)[C@H]1O [Glucosylsphingosine]	955.6283 RFU	
O=C(O)CCCC(=O)O [Glutaric acid]	944.8681 RFU	
COc1cc2c(=O)c(-c3ccc(O)cc3)coc2cc1O[C@@H]1O[C@H](CO)[C@@H](O)[C@H](O)[C@H]1O [Glycitin]	799.4163 RFU	
C[C@H](CCC(=O)NCC(=O)O)[C@H]1CC[C@H]2[C@@H]3CC[C@@H]4C[C@H](O)CC[C@]4(C)[C@H]3CC[C@]12C [Glycolithocholic acid]	1103.978 RFU	
NCC(=O)N[C@@H](CC(=O)O)C(=O)O [Glycyl-L-Aspartic] (H-Gly-Asp-OH)	903.5873 RFU	
NCC(=O)N[C@@H](CCC(=O)O)C(=O)O [Glycyl-L-Glutamic Acid] (H-Gly-Glu-OH)	846.2286 RFU	
NCC(=O)N1CCC[C@H]1C(=O)O [Glycyl-L-Proline] (H-Gly-Pro-OH)	318.8964 RFU	significantly inhibited lipase activity
CC(C)C[C@H](NC(=O)CN)C(=O)O [Glycyl-L-leucine]	829.1827 RFU	
COc1cc([C@H]2c3cc(O)c(OC)cc3C[C@@H](C)[C@@H]2C)ccc1O [Guaiacin]	808.3575 RFU	
C[C@H]1CC[C@@H](C(C)(C)O)CC2=C1CC[C@@H]2C [Guaiol]	919.8918 RFU	
Nc1nc2nc[nH]c2c(=O)[nH]1 [Guanine]	909.1174 RFU	
Nc1nc2c(ncn2[C@@H]2O[C@@H]3COP(=O)(O)O[C@H]3[C@H]2O)c(=O)[nH]1 [Guanosine-3′,5′-cyclic monophosphate]	813.7484 RFU and 1141.322 RFU	
CC[C@H](N)C(=O)O [H-Abu-OH]	993.6587 RFU	
NCC(=O)N1CCC[C@H]1C(=O)O [H-Gly-Pro-OH] (H-Gly-Pro-OH)	952.5324 RFU	
NC(N)=NCCCC[C@H](N)C(=O)O [H-HoArg-OH]	745.4822 RFU	
N[C@@H](Cc1ccc(O)c(I)c1)C(=O)O [H-Tyr(3-I)-OH]	847.3153 RFU	
COC(=O)C1=CO[C@@H](O[C@@H]2O[C@H](CO)[C@@H](O)[C@H](O)[C@H]2O)[C@@H]2[C@@H](C)CC(=O)[C@]12O [Hastatoside]	738.976 RFU	
C[C@@H]1O[C@@H](O[C@H]2[C@H](O[C@H]3CC[C@]4(C)[C@H]5CC=C6[C@@H]7CC(C)(C)CC[C@]7(C(=O)O[C@@H]7O[C@H](CO[C@@H]8O[C@H](CO)[C@@H](O[C@@H]9O[C@@H](C)[C@H](O)[C@@H](O)[C@H]9O)[C@H](O)[C@H]8O)[C@@H](O)[C@H](O)[C@H]7O)CC[C@@]6(C)[C@]5(C)CC[C@H]4C3(C)C)OC[C@H](O)[C@@H]2O)[C@H](O)[C@H](O)[C@H]1O [Hederasaponin B]	619.4985 RFU	
COc1ccc([C@@H]2CC(=O)c3c(O)cc(O[C@@H]4O[C@H](CO[C@@H]5O[C@@H](C)[C@H](O)[C@@H](O)[C@H]5O)[C@@H](O)[C@H](O)[C@H]4O)cc3O2)cc1O [Hesperidin]	595.5734 RFU and 766.088 RFU	
COc1c(O)cc2oc(-c3ccc(O)cc3)cc(=O)c2c1O [Hispidulin]	914.8964 RFU	
Cl.Cl.NCCc1c[nH]cn1 [Histamine (dihydrochloride)]	1022.007 RFU	
COc1cc(CC(=O)O)ccc1O [Homovanillic acid]	934.4466 RFU	
CN(C)CCc1ccc(O)cc1 [Hordenine]	1057.467 RFU	
C/C=C/C=C/C=C\CC/C=C/C(=O)NCC(C)(C)O [Hydroxy-α-sanshool]	984.0163 RFU	
